Measurements from patent publication US12497408B2, “Tetracyclic compounds and methods for the treatment of Zika virus infection” (priority 2021, dated 2025).

What follows are compounds tested on ZIKV (assay: ZIKV reporter virus-based antiviral screening on Huh7 cells). Details: Huh7 cells infected with recombinant luciferase reporter ZIKV (MOI about 0.1), 48 hrs, luciferase signal; read-out: EC50.
Assay type: cell-based, Zika virus
Method in brief: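 Huh7 cells in 2% FBS assay medium infected at MOI about 0.1 with Renilla or Nano luciferase ZIKV premixed with nine-point compound dilutions, 48 hrs at 37° C. Luciferase signal normalized to DMSO controls as 100%; viability optionally by CellTiter-Glo with Rlu virus.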

Structure (SMILES) | EC50 [nM]
COC(=O)N[C@H](C(=O)N1[C@@H](C)CC[C@H]1c1nc(Cl)c(-c2cc3c4c(c2)OCc2cc(-c5[nH]c([C@@H]6CC[C@H](C)N6C(=O)[C@@H](NC(=O)OC)C(C)(C)C(F)(F)F)nc5Cl)cc(c2-4)OC3)[nH]1)C(C)(C)C(F)(F)F [Compound 34, dimethyl ((2S,2′S)-((2S,2′S,5S,5′S)-((5,10-dihydrochromeno[5,4,3-cde]chromene-2,7-diyl)bis(4-chloro-1H-imidazole-5,2-diyl))bis(2-methylpyrrolidine-5,1-diyl))bis(4,4,4-trifluoro-3,3-dimethyl-1-oxobutane-l,2-diyl))dicarbamate] | 2.6

Same assay, conditions: Zika virus, Huh-7, 48 h, Huh7 cells infected with recombinant luciferase reporter ZIKV (MOI about 0.1), luciferase signal

Structure (SMILES) | EC50 [nM]
CC[C@H](C)[C@H](NC(=O)OC)C(=O)N1[C@@H](C)CC[C@H]1c1nc(C(C)C)c(-c2cc3c4c(c2)OCc2cc(-c5[nH]c([C@@H]6CC[C@H](C)N6C(=O)[C@@H](NC(=O)OC)[C@@H](C)CC)nc5C(C)C)cc(c2-4)OC3)[nH]1 [Compound 41, dimethyl ((2S,2′S,3S,3′S)-((2S,2′S,5S,5′S)-((5,10-dihydrochromeno[5,4,3-cde]chromene-2,7-diyl)bis(4-isopropyl-1H-imidazole-5,2-diyl))bis(2-methylpyrrolidine-5,1-diyl))bis(3-methyl-1-oxopentane-1,2-diyl))dicarbamate] | 2.8
CC[C@H](C)[C@H](NC(=O)OC)C(=O)N1[C@H](c2nc(Cl)c(-c3cc4c5c(c3)OCc3cc(-c6[nH]c([C@@H]7C[C@@H]8CCCC[C@@H]8N7C(=O)[C@@H](NC(=O)OC)[C@@H](C)CC)nc6Cl)cc(c3-5)OC4)[nH]2)C[C@@H]2CCCC[C@@H]21 [Compound 39, dimethyl ((2S,2′S,3S,3′S)-((2S,2′S,3aS,3a′S,7aS,7a′S)-((5,10-dihydrochromeno[5,4,3-cde]chromene-2,7-diyl)bis(4-chloro-1H-imidazole-5,2-diyl))bis(octahydro-1H-indole-2,1-diyl))bis(3-methyl-1-oxopentane-1,2-diyl))dicarbamate] | 10.9
COC(=O)N[C@H](C(=O)N1C[C@@H](F)C[C@H]1c1nc(Cl)c(-c2cc3c4c(c2)OCc2cc(-c5[nH]c([C@@H]6C[C@H](F)CN6C(=O)[C@@H](NC(=O)OC)C(C)C)nc5Cl)cc(c2-4)OC3)[nH]1)C(C)C [Compound 50, dimethyl ((2S,2′S)-((3S,3′S,5S,5′S)-((5,10-dihydrochromeno[5,4,3-cde]chromene-2,7-diyl)bis(4-chloro-1H-imidazole-5,2-diyl))bis(3-fluoropyrrolidine-5,1-diyl))bis(3-methyl-1-oxobutane-1,2-diyl))dicarbamate] | 240
COC(=O)N[C@H](C(=O)N1CC2(CC2)C[C@H]1c1nc(Cl)c(-c2cc3c4c(c2)OCc2cc(-c5[nH]c([C@@H]6CC7(CC7)CN6C(=O)[C@@H](NC(=O)OC)C(C)C)nc5C(C)C)cc(c2-4)OC3)[nH]1)C(C)C [Compound 15, methyl ((S)-1-((S)-6-(5-(7-(4-chloro-2-((S)-5-((methoxycarbonyl)-L-valyl)-5-azaspiro[2.4]heptan-6-yl)-1H-imidazol-5-yl)-5,10-dihydrochromeno[5,4,3-cde]chromen-2-yl)-4-isopropyl-1H-imidazol-2-yl)-5-azaspiro[2.4]heptan-5-yl)-3-methyl-1-oxobutan-2-yl)carbamate] | 3.7
COC(=O)N[C@H](C(=O)N1CCC[C@@]1(C)c1nc(Cl)c(-c2cc3c4c(c2)OCc2cc(-c5[nH]c([C@]6(C)CCCN6C(=O)[C@@H](NC(=O)OC)C(C)C)nc5Cl)cc(c2-4)OC3)[nH]1)C(C)C [Compound 64, dimethyl ((2S,2′S)-((2S,2′S)-((5,10-dihydrochromeno[5,4,3-cde]chromene-2,7-diyl)bis(4-chloro-1H-imidazole-5,2-diyl))bis(2-methylpyrrolidine-2,1-diyl))bis(3-methyl-1-oxobutane-1,2-diyl))dicarbamate] | 234
